According to US20230278972A1, “SUBSTITUTED HALOALKYL SULFONANILIDE HERBICIDES” (FMC Corporation, priority 2020, published 2023):

Tests used:
Assay type in all cases: in vivo
[1] = system: Foxtail, Giant (giant foxtail, Setaria faberi); assay: Test A postemergence, Foxtail, Giant; conditions: Postemergence; for Foxtail, Giant plant response rating: 500 g ai/ha, visual injury vs untreated controls after approx. 10 days
Procedure, shortened: (§1)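 Test chemicals, formulated in a non-phytotoxic solvent mixture with surfactant, were sprayed postemergence on plants 2 to 10 cm tall at the one- to two-leaf stage. Preemergence treatment was a directed soil spray onto freshly seeded pots. Both used a loam soil and sand blend.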

[2] = system: wheat (Triticum aestivum); assay: Test A postemergence, wheat; conditions: Postemergence; for Wheat plant response rating: 500 g ai/ha, visual injury vs untreated controls after approx. 10 days
Procedure, shortened: (§2)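 Compounds in non-phytotoxic solvent with surfactant. Soil: loam/sand. Preemergence via directed soil spray after seeding; postemergence on seedlings 2–10 cm, one- to two-leaf.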

[3] = system: ragweed (common ragweed, Ambrosia artemisiifolia); assay: Test A preemergence, ragweed; conditions: Preemergence; for Ragweed plant response rating: 125 g ai/ha, visual injury on 0 to 100 scale (0 no effect, 100 complete control), approximately 10 days; for Plant response rating, Ragweed: 0 to 100 scale (0 no effect, 100 complete control)
Procedure, shortened: as §1

[4] = system: Ryegrass, Italian (Italian ryegrass, Lolium multiflorum); assay: Test A preemergence, Ryegrass, Italian; conditions: Preemergence; for Ryegrass, Italian plant response rating: 125 g ai/ha, visual injury on 0 to 100 scale (0 no effect, 100 complete control), approximately 10 days; for Plant response rating, Ryegrass, Italian: 0 to 100 scale (0 no effect, 100 complete control)
Procedure, shortened: as §1

[5] = system: ragweed (common ragweed, Ambrosia artemisiifolia); assay: Test A postemergence, ragweed; conditions: Postemergence; for Ragweed plant response rating: 500 g ai/ha, visual injury vs untreated controls after approx. 10 days
Procedure, shortened: as §1

[6] = system: Foxtail, Giant (giant foxtail, Setaria faberi); assay: Test A preemergence, Foxtail, Giant; conditions: Preemergence; for Foxtail, Giant plant response rating: 125 g ai/ha, visual injury on 0 to 100 scale (0 no effect, 100 complete control), approximately 10 days; for Plant response rating, Foxtail, Giant: 0 to 100 scale (0 no effect, 100 complete control)
Procedure, shortened: as §1

[7] = system: barnyardgrass (Echinochloa crus-galli); assay: Test A preemergence, barnyardgrass; conditions: Preemergence; for Barnyardgrass plant response rating: 125 g ai/ha, visual injury on 0 to 100 scale (0 no effect, 100 complete control), approximately 10 days; for Plant response rating, Barnyardgrass: 0 to 100 scale (0 no effect, 100 complete control)
Procedure, shortened: as §1

[8] = system: galium (catchweed bedstraw, Galium aparine); assay: Test A postemergence, galium; conditions: Postemergence; for Galium plant response rating: 500 g ai/ha, visual injury vs untreated controls after approx. 10 days
Procedure, shortened: as §2

kochia (Bassia scoparia) [9] = assay: Test A postemergence, kochia; conditions: Postemergence; for Kochia plant response rating: 500 g ai/ha, visual injury vs untreated controls after approx. 10 days
Procedure, shortened: as §1

[10] = system: pigweed (Amaranthus retroflexus); assay: Test A postemergence, pigweed; conditions: Postemergence; for Pigweed plant response rating: 500 g ai/ha, visual injury vs untreated controls after approx. 10 days
Procedure, shortened: as §1

[11] = system: pigweed (Amaranthus retroflexus); assay: Test A preemergence, pigweed; conditions: for Pigweed plant response rating: 125 g ai/ha, visual injury on 0 to 100 scale (0 no effect, 100 complete control), approximately 10 days; for Plant response rating, Pigweed: 0 to 100 scale (0 no effect, 100 complete control)
Procedure, shortened: as §2

corn (Zea mays) = assay: Test A postemergence, corn; conditions: Postemergence; for Corn plant response rating: 500 g ai/ha, visual injury vs untreated controls after approx. 10 days
Procedure, shortened: as §1

[12] = system: Ryegrass, Italian (Italian ryegrass, Lolium multiflorum); assay: Test A postemergence, Ryegrass, Italian; conditions: Postemergence; for Ryegrass, Italian plant response rating: 500 g ai/ha, visual injury vs untreated controls after approx. 10 days
Procedure, shortened: as §1

kochia (Bassia scoparia) [13] = assay: Test A preemergence, kochia; conditions: Preemergence; for Kochia plant response rating: 125 g ai/ha, visual injury on 0 to 100 scale (0 no effect, 100 complete control), approximately 10 days; for Plant response rating, Kochia: 0 to 100 scale (0 no effect, 100 complete control)
Procedure, shortened: as §1

[14] = system: blackgrass (Alopecurus myosuroides); assay: Test A postemergence, blackgrass; conditions: Postemergence, 0 to 100 scale (0 no effect, 100 complete control); for Blackgrass plant response rating: 500 g ai/ha, visual injury vs untreated controls after approx. 10 days
Procedure, shortened: as §1

[15] = system: barnyardgrass (Echinochloa crus-galli); assay: Test A postemergence, barnyardgrass; conditions: Postemergence, 0 to 100 scale (0 no effect, 100 complete control); for Barnyardgrass plant response rating: 500 g ai/ha, visual injury vs untreated controls after approx. 10 days
Procedure, shortened: as §2

[16] = 125 g ai/ha, visual injury approx. 10 days, 0 to 100 scale (0 no effect, 100 complete control)
[17] = 0 to 100 scale (0 no effect, 100 complete control)
[18] = 125 g ai/ha, visual injury approx. 10 days
[19] = 31 g ai/ha, visual injury on 0 to 100 scale (0 no effect, 100 complete control), approx. 10 days
[20] = 31 g ai/ha, visual injury, approx. 10 days

Row | SMILES | Plant response rating, Foxtail, Giant [1, 16] | Foxtail, Giant plant response rating [1, 17] | Plant response rating, Wheat [2, 16] | Wheat plant response rating [2, 17] | Ragweed plant response rating [3] | Plant response rating, Ragweed ([3]; 500 g ai/ha) | Ryegrass, Italian plant response rating [4] | Plant response rating, Ryegrass, Italian ([4]; 500 g ai/ha) | Plant response rating, Ragweed [5, 16] | Foxtail, Giant plant response rating [6] | Barnyardgrass plant response rating [7] | Plant response rating, Galium [8, 16] | Plant response rating, Kochia (kochia (Bassia scoparia) [9]; [16]) | Plant response rating, Pigweed [10, 16] | Pigweed plant response rating [11] | Plant response rating, Corn (corn (Zea mays); [16]) | Plant response rating, Ryegrass, Italian [12, 16] | Kochia plant response rating (kochia (Bassia scoparia) [13]) | Plant response rating, Blackgrass [14, 18] | Plant response rating, Barnyardgrass [15, 18] | also measured
1 | Cc1cc(C)c(C(=O)N(C)CC2CC2)cc1NS(=O)(=O)C(F)(F)F [Compound 107] | 10 | 50 | 0 | 40 | 50 | 80 | 60 | 90 | 70 | 60 | 90 | 90 | 20 | 50 | 80 | 0 | 0 | 0 | 0 | 70 | Ragweed plant response rating [5, 17]: 90; Plant response rating, Foxtail, Giant ([6]; 500 g ai/ha): 100; Plant response rating, Barnyardgrass ([7]; 500 g ai/ha): 100; Galium plant response rating [8, 17]: 90; Kochia plant response rating (kochia (Bassia scoparia) [9]; [17]): 40; Pigweed plant response rating [10, 17]: 60; Plant response rating, Pigweed ([11]; 500 g ai/ha): 90; Corn plant response rating (corn (Zea mays); [17]): 80; Ryegrass, Italian plant response rating [12, 17]: 30; Plant response rating, Kochia (kochia (Bassia scoparia) [13]; 500 g ai/ha): 50; Blackgrass plant response rating [14]: 30; Barnyardgrass plant response rating [15]: 90
2 | Cc1c(NS(=O)(=O)C(F)(F)F)cc(C(=O)N2CCC(F)CC2)c(C)c1F [Compound 109] | 0 | 40 | 30 | 70 | 90 | 90 | 70 | 80 | 70 | 100 | 90 | 80 | 10 | 50 | 100 | 0 | 40 | 90 | 10 | 0 | Ragweed plant response rating [5, 17]: 80; Plant response rating, Foxtail, Giant ([6]; 500 g ai/ha): 100; Plant response rating, Barnyardgrass ([7]; 500 g ai/ha): 100; Galium plant response rating [8, 17]: 90; Kochia plant response rating (kochia (Bassia scoparia) [9]; [17]): 40; Pigweed plant response rating [10, 17]: 80; Plant response rating, Pigweed ([11]; 500 g ai/ha): 100; Corn plant response rating (corn (Zea mays); [17]): 40; Ryegrass, Italian plant response rating [12, 17]: 60; Plant response rating, Kochia (kochia (Bassia scoparia) [13]; 500 g ai/ha): 100; Blackgrass plant response rating [14]: 10; Barnyardgrass plant response rating [15]: 70
3 | COC1CCN(C(=O)c2cc(NS(=O)(=O)C(F)(F)F)c(C)c(F)c2C)CC1 [Compound 110] | 0 | 90 | 20 | 60 | 80 | 90 | 20 | 90 | 90 | 90 | 40 | 70 | 10 | 70 | 80 | 0 | 0 | 80 | 0 | 20 | Ragweed plant response rating [5, 17]: 90; Plant response rating, Foxtail, Giant ([6]; 500 g ai/ha): 100; Plant response rating, Barnyardgrass ([7]; 500 g ai/ha): 90; Galium plant response rating [8, 17]: 80; Kochia plant response rating (kochia (Bassia scoparia) [9]; [17]): 50; Pigweed plant response rating [10, 17]: 100; Plant response rating, Pigweed ([11]; 500 g ai/ha): 100; Corn plant response rating (corn (Zea mays); [17]): 10; Ryegrass, Italian plant response rating [12, 17]: 50; Plant response rating, Kochia (kochia (Bassia scoparia) [13]; 500 g ai/ha): 100; Blackgrass plant response rating [14]: 0; Barnyardgrass plant response rating [15]: 80
4 | COC1CN(C(=O)c2cc(NS(=O)(=O)C(F)(F)F)c(C)cc2C)C1 [Compound 111] | 60 | – | 50 | – | 40 | – | 70 | – | 90 | 60 | 30 | 70 | 60 | 90 | 90 | 40 | 30 | 50 | 0 | 80 | Plant response rating, Foxtail, Giant [1, 19]: 0; Plant response rating, Wheat [2, 19]: 0; Plant response rating, Ragweed [3, 20]: 10; Plant response rating, Ryegrass, Italian [4, 20]: 0; Plant response rating, Ragweed [5, 19]: 70; Plant response rating, Foxtail, Giant [6, 20]: 0; Plant response rating, Barnyardgrass [7, 20]: 10; Plant response rating, Galium [8, 19]: 50; Plant response rating, Kochia (kochia (Bassia scoparia) [9]; [19]): 20; Plant response rating, Pigweed [10, 19]: 20; Plant response rating, Pigweed [11, 20]: 10; Plant response rating, Corn (corn (Zea mays); [19]): 0; Plant response rating, Ryegrass, Italian [12, 19]: 30; Plant response rating, Kochia (kochia (Bassia scoparia) [13]; [20]): 0; Plant response rating, Blackgrass ([14]; 31 g ai/ha): 0; Plant response rating, Barnyardgrass ([15]; 31 g ai/ha): 40
